The text below walks through data of patent US10202418B2, “Hydroxy-ethylene derivatives for the treatment of arthrosis” (MERCK PATENT GMBH, priority 2013, dated 2019).

Starred links: 1 amine or outer side, 2 acyl side, 3 side chain; linkers in the order of their positions; H or OH if unused. Non-standard residues stand in square brackets, D forms with d. Residues, ends and D or L forms follow the SMILES beside them. *: point of attachment. Hexanoyl(5S-NH,4S-OH,6-Ph) = O=C(CC[C@H](O)[C@H](Cc1ccccc1)N[*:1])[*:2]; Sta = CC(C)C[C@H](N)[C@@H](O)CC(=O)O; Isovaleryl = CC(C)CC(=O)*; Boc = CC(C)(C)OC(=O)*

The target in test [1] is cathepsin D isolated from the human liver (Homo sapiens (Human), UniProt P07339). Description: In-vitro fluorescence assay for identification of cathepsin D inhibitors. It counts as biochemical. As to conditions: cathepsin D 1.4 nM, pH 5.5; values in E notation; read-out: Cath D IC50. As to the method:
In order to identify modulators of cathepsin D activity, a continuous enzymatic test was carried out with a synthetic peptide which carries a fluorescent group (MCA=(7-methoxycoumarin-4-yl)acetyl) which is quenched by energy transfer from a Dpn (2,4 dinitrophenyl) group on the same molecule, in Greiner 384-well nb microtitre plates. Cleavage of the peptidic substrate by cathepsin D causes an increase in the fluorescence intensity. In order to determine the efficacy of substances, the time-dependent increase in the fluorescence intensity in the presence of the substance was compared with the time-dependent increase in fluorescence in the absence of substances. The reference substance used was pepstatin A (Sigma-Aldrich). The substrate used was MCA-GKPILFFRLK(Dnp)d-R—NH2 (Enzo Life Sciences, Lor-rach). The enzyme employed was cathepsin D isolated from the human liver (Sigma-Aldrich) in a final concentration of 1.4 nM. The test was carried out in 100 mM sodium acetate buffer, 1.25% (v/v) of DMSO, 0.25% (w/v) of Chaps, pH 5.5. 2 μl of each substance solution with serially diluted substance concentration were added to in each case 4 μl of cathepsin D solution and incubated at room temperature for 10 min. The reaction was started by addition of 2 μl of substrate solution (final concentration 5 μM). After carrying out a starting-point fluorescence measurement (excitation wavelength 340 nm/emission wavelength 450 nm) using an Envision multilabel reader (Perkin Elmer), the reaction was incubated at room temperature for 60 min. The amount of peptide fragment cleaved off during the reaction time was subsequently measured by determination of the increase in the fluorescence intensity at 450 nm (excitation wavelength 340 nm).
The IC50 values of the compounds according to the invention can be obtained from Table 2 from Example 1.

Another test concerns the target recombinant human renin (Homo sapiens (Human), UniProt P00797). Put plainly: In-vitro fluorescence assay for identification of renin-inhibitory activity. Particulars: renin 10 nM, pH 7.2. Format: biochemical. On the procedure:
In order to identify modulators of renin activity, a continuous enzymatic test was carried out with a synthetic peptide which carries a fluorescent group Edans (=(5-(aminoethyl)aminonaphthalenesulfonate) which is quenched by energy transfer from a Dabcyl (4′-dimethylaminoazobenzene-4-carboxylate) group on the same molecule, in Greiner 384-well microtitre plates. Cleavage of the peptidic substrate by renin causes an increase in the fluorescence intensity. In order to determine the efficacy of substances, the time-dependent increase in the fluorescence intensity in the presence of the substance was compared with the time-dependent increase in fluorescence in the absence of substances. The reference substance used was renin inhibitor 2 (Z-Arg-Arg-Pro-Phe-His-Sta-Ile-His N-Boc-Lys methyl ester Z) (Sigma-Aldrich). The substrate used was renin FRET substrate I (DABCYL-g-Abu-Ile-His-Pro-Phe-His-Leu-Val-Ile-His-Thr EDANS) (Anaspec, Fremont Calif.). The enzyme employed was recombinant human renin (Proteos, Kalamazoo, Mich.) in a final concentration of 10 nM. The test was carried out in 50 mM Mops buffer, 1.5% (v/v) of DMSO, 0.1% (w/v) of Igepal®, pH 7.2, 0.5% (w/v) of BSA. 2 μl of each substance solution with serially diluted substance concentration were added to in each case 4 μl of renin solution and incubated at room temperature for 15 min. The reaction was started by addition of 4 μl of substrate solution (final concentration 5 μM). After carrying out a starting-point fluorescence measurement (excitation wavelength 340 nm/emission wavelength 495 nm) using an Envision multilabel reader (Perkin Elmer), the reaction was incubated at 37° C. for 60 min. The amount of peptide fragment cleaved off during the reaction time was subsequently measured by determination of the increase in the fluorescence intensity at 495 nm (excitation wavelength 340 nm).

Test [2] has as its system cartilage explant cultures. Particulars: pH 5.5, explant cultures; cited from earlier work.
The next test has as its system rat knee joint. Description: Anti-hyperalgesic effect in animals (carrageenan-injected rat knee joint, Hargreaves test). Format: in vivo. As to conditions: intra-articular, 30 minutes before CAR.

Sequence of recombinant human renin (P00797 67-406): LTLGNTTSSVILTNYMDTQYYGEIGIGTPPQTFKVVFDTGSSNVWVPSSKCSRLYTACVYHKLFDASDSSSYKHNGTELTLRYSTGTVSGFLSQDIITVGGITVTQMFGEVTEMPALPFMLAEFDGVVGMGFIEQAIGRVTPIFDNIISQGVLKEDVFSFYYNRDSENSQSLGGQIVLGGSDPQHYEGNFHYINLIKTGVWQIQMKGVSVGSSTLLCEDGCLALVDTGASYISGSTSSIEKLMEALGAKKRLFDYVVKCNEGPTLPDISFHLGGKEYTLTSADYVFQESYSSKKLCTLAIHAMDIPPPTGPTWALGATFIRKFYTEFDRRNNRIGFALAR
Sequence of cathepsin D isolated from the human liver (P07339 65-161): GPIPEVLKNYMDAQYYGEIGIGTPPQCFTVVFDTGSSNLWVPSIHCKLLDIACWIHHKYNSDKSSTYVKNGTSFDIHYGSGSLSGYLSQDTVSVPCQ
Sequence of cathepsin D isolated from the human liver (P07339 169-412): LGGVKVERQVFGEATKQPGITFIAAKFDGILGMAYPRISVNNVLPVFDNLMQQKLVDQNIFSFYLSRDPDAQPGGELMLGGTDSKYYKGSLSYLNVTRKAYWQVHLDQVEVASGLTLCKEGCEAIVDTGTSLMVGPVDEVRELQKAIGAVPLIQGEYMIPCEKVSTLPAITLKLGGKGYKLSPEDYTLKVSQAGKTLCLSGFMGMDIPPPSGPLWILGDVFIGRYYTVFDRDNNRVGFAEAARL
Description for rat knee joint: In order to induce an inflammation reaction, a carrageenan solution (CAR, 1%, 50 μl) was injected intra-articularly on one side into a rat knee joint. The uninjected side was used for control purposes. Six animals per group were used. The threshold was determined by means of a micrometer screw (medial-lateral on the knee joint), and the thermal hyperalgesia was determined by means of a directed infrared light source by the Hargreaves method (Hargreaves et al., 1988) on the sole of the foot. […] Experimental description of thermal hyperalgesia (Hargreaves test): the experimental animal is placed in a plastic chamber on a quartz sheet. Before testing, the experimental animal is firstly given about 5-15 minutes time to familiarise itself with the environment. As soon as the experimental animal no longer moves so frequently after the familiarisation phase (end of the exploration phase), the infrared light source, whose focus is in the plane of the glass bottom, is positioned directly beneath the rear paw to be stimulated. […] Light reflected by the paw is recorded as long as the experimental animal sits still. Withdrawal of the paw interrupts this reflection, after which the infrared light source is switched off and the time from switching on to switching off is recorded. […]

Turning to `CC[C@H](C)[C@H](NC(=O)CC[C@H](O)[C@H](Cc1ccccc1)NC(=O)[C@@H](NC(=O)[C@H](CC(C)C)NC(=O)OC(C)(C)C)C(C)C)C(=O)N[C@H](C(=O)OC)C(C)C` [Compound A2, (S)-2-((2S,3S)-2-{(4S,5S)-5-[(S)-2-((S)-2-tert-Butoxycarbonylamino-4-methylpentanoylamino)-3-methylbutyrylamino]-4-hydroxy-6-phenyl-hexanoylamino}-3-methylpentanoylamino)-3-methylbutyric acid methyl ester] (Boc-LV[Hexanoyl(5S-NH,4S-OH,6-Ph)]IV-OMe), the IC50 in test [1] was 41 nM; on recombinant human renin (values in E notation), 1100 nM.

In the case of `CC[C@H](C)[C@H](NC(=O)CC[C@H](O)[C@H](Cc1ccccc1)NC(=O)[C@@H](NC(=O)[C@H](CC(C)C)NC(=O)OC(C)(C)C)C(C)C)C(=O)NCc1cnc(C)nc1N` [Compound A1, {(S)-1-[(S)-1-((1S,2S)-4-{(1S,2S)-1-[(4-Amino-2-methylpyrimidin-5-yl-methyl)carbamoyl]-2-methylbutylcarbamoyl}-1-benzyl-2-hydroxybutyl-carbamoyl)-2-methylpropylcarbamoyl]-3-methylbutyl}carbamic acid tert-butyl ester], the values for the IC50 (in test [1]; at recombinant human renin (values in E notation)) were 430 nM and 320 nM, respectively.

Regarding `COC(=O)[C@@H](NC(=O)[C@H](Cc1ccccc1)NC(=O)CC[C@H](O)[C@H](Cc1ccccc1)NC(=O)[C@@H](NC(=O)[C@H](CC(C)C)NC(=O)CC(C)C)C(C)C)C(C)C` [Compound A17, (S)-2-[(S)-2-((4S,5S)-4-Hydroxy-5-{(S)-3-methyl-2-[(S)-4-methyl-2-(3-methylbutyrylamino)pentanoylamino]butyrylamino}-6-phenylhexanoyl-amino)-3-phenylpropionylamino]-3-methylbutyric acid methyl ester] (Isovaleryl-LV[Hexanoyl(5S-NH,4S-OH,6-Ph)]FV-OMe), the IC50 in test [1] is 255 nM; on recombinant human renin, > 30000 nM.

For `CC[C@H](C)[C@H](NC(=O)CC[C@H](O)[C@H](Cc1ccccc1)NC(=O)[C@@H](NC(=O)[C@H](CC(C)C)NC(=O)CC(C)C)C(C)C)C(=O)N[C@H](C(=O)O)C(C)C` [Compound A21, (S)-2-[(2S,3S)-2-((4S,5S)-4-Hydroxy-5-{(S)-3-methyl-2-[(S)-4-methyl-2-(3-methylbutyrylamino)pentanoylamino]butyrylamino}-6-phenylhexanoyl-amino)-3-methylpentanoylamino]-3-methylbutyric acid] (Isovaleryl-LV[Hexanoyl(5S-NH,4S-OH,6-Ph)]IV-OH), the half-inhibitory concentration (IC50) is 24 nM in test [1] and 12000 nM on recombinant human renin (values in E notation).

With `CC[C@H](C)[C@H](NC(=O)CC[C@H](O)[C@H](Cc1ccccc1)NC(=O)[C@@H](NC(=O)Cc1cccc(OC(F)(F)F)c1)C(C)C)C(=O)N[C@H](C(=O)O)C(C)C` [Compound A22, (S)-2-[(2S,3S)-2-((4S,5S)-4-Hydroxy-5-{(S)-3-methyl-2-[2-(3-trifluoro-methoxyphenyl)acetylamino]butyrylamino}-6-phenylhexanoylamino)-3-methylpentanoylamino]-3-methylbutyric acid], the IC50 is 350 nM in test [1] and > 30000 nM at recombinant human renin.

For `CC(C)CC(=O)N[C@H](C(=O)N[C@H](C(=O)N[C@@H](CC(C)C)[C@@H](O)CC(=O)N[C@@H](C)C(=O)N[C@@H](CC(C)C)[C@@H](O)CC(=O)O)C(C)C)C(C)C` [pepstatin] (Isovaleryl-VV[Sta]A[Sta]-OH), the “inhibition of autodigestion of the cartilage” value in test [2] is recorded as “inhibited virtually completely”.

As to `CC(C)[C@H](NC(=O)Cc1cccc(Oc2ccccc2)c1)C(=O)N[C@@H](Cc1ccccc1)[C@@H](O)CCC(=O)NCCc1ccccc1` [Compound A6, (4S,5S)-4-Hydroxy-5-{(S)-3-methyl-2-[2-(3-phenoxyphenyl)acetylamino]-butyrylamino}-6-phenylhexanoic acid phenethylamide], the IC50 in test [1] was 12000 nM; at recombinant human renin, > 30000 nM.

As to `C[C@]12C=CC(=O)C=C1CC[C@H]1[C@@H]3C[C@@H](O)[C@](O)(C(=O)CO)[C@@]3(C)C[C@H](O)[C@@]12F` [TAC, Triamcinolone], the “reduction of CAR-induced swelling” value in the test on rat knee joint is “capable of reducing the CAR-induced swelling”.

For the molecule `CC(C)c1nc(CN(C)C(=O)N[C@H](C(=O)N[C@@H](Cc2ccccc2)C[C@H](O)[C@H](Cc2ccccc2)NC(=O)OCc2cncs2)C(C)C)cs1` [ritonavir], the “inhibition of autodigestion of the cartilage” value in test [2] is “inhibited virtually completely”.

`CC(C)[C@H](NC(=O)C(c1ccccc1)c1ccccc1)C(=O)N[C@@H](Cc1ccccc1)[C@@H](O)CCC(=O)NCCc1ccccc1` [Compound A13, (4S,5S)-5-((S)-2-Diphenylacetylamino-3-methylbutyrylamino)-4-hydroxy-6-phenylhexanoic acid phenethylamide]: the 50% inhibitory concentration (IC50) is 4300 nM in test [1] and > 30000 nM at recombinant human renin.

Regarding `COc1ccc(OC(F)(F)F)cc1CC(=O)N[C@H](C(=O)N[C@@H](Cc1ccccc1)[C@@H](O)CCC(=O)NCCc1ccccc1)C(C)C` [Compound A4, (4S,5S)-4-Hydroxy-5-{(S)-2-[2-(2-methoxy-5-trifluoromethoxyphenyl)-acetylamino]-3-methylbutyrylamino}-6-phenylhexanoic acid phenethyl-amide], the IC50 in test [1] is 4000 nM; at recombinant human renin, > 30000 nM.

On to `COc1cccc(CC(=O)N[C@H](C(=O)N[C@@H](Cc2ccccc2)[C@@H](O)CCC(=O)NCCc2ccccc2)C(C)C)c1` [Compound A8, (4S,5S)-4-Hydroxy-5-{(S)-2-[2-(3-methoxyphenyl)acetylamino]-3-methyl-butyrylamino}-6-phenylhexanoic acid phenethylamide], for which the IC50 at recombinant human renin is > 30000 nM.
